Measured values as given in patent publication US20240116985A1, “STAPLED PEPTIDES AND METHODS THEREOF” (priority 2020, published 2024).
Read-outs that look alike come from different tables or passages of the source.

Molecular target: T1, full-length beta-Catenin (Uniprot ID P35222) (Homo sapiens, UniProt P35222)
T1 construct: 10 nM full-length beta-Catenin (Uniprot ID P35222)
T1 sequence (P35222 1-781): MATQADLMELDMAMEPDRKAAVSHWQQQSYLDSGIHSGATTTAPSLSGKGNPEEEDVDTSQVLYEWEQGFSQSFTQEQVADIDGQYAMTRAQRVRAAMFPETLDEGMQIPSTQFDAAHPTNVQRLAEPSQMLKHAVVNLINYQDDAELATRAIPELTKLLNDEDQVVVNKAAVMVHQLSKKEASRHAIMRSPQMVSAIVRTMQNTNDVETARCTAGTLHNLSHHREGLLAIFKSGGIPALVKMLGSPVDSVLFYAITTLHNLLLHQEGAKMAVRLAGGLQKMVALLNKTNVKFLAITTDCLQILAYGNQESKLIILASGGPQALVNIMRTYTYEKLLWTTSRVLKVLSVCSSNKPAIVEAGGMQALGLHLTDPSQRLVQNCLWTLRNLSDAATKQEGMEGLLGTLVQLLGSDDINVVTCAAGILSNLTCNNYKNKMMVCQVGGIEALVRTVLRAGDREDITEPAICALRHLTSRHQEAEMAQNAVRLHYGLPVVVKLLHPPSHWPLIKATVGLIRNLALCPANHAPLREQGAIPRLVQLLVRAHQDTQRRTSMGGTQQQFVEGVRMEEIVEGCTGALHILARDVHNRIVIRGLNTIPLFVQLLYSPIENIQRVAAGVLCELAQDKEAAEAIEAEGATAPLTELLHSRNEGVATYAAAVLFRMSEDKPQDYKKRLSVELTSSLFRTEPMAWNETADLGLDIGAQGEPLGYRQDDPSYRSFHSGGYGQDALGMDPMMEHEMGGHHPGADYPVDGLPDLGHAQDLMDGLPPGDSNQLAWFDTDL
Test: Fluorescence polarization IC50 (beta-catenin / 5FAM-TCF4 10-53 competition)
Type: binding

[1] = fluorescence polarization, read-out: beta-Catenin FP IC50
[2] = beta-Catenin FP IC50, fluorescence polarization
[3] = fluorescence polarization, beta-catenin, read-out: FP EC50

Row | Compound | IC50 [1] [nM] | IC50 [3] [nM] | IC50 [2] [nM]
1 | CC(=O)N1CCC[C@]12CC=CCCCC1(CCCC=CCCCCCC[C@@](C)(C(=O)N[C@@H](Cc3ccsc3)C(=O)N[C@@H](Cc3csc4ccccc34)C(=O)N[C@H](CO)[C@@H](C)O)NC(=O)[C@H](CCO)NC(=O)[C@H](Cc3ccccc3)NC(=O)[C@H](C)NC(=O)[C@H](C)NC(=O)[C@H](CC(=O)O)NC(=O)[C@H](CC(=O)O)NC1=O)NC(=O)[C@H](CC(C)(C)C)NC(=O)[C@H](CC(=O)O)NC2=O (stereo partly drawn) [I-1390, Ac-PL3-Asp-Npg-B5-Asp-Asp-Ala-Ala-Phe-Hse-S8-3Thi-BztA-Thro1] | 16 |  | 
2 | CC(=O)N1CCC[C@]12CC=CCCCC1(CCCC=CCCCCCC[C@@](C)(C(=O)N[C@@H](Cc3ccccc3C(F)(F)F)C(=O)N[C@@H](Cc3csc4ccccc34)C(=O)N[C@H](CO)[C@@H](C)O)NC(=O)[C@H](CCO)NC(=O)[C@H](Cc3ccccc3)NC(=O)[C@H](C)NC(=O)[C@H](C)NC(=O)[C@H](CC(=O)O)NC(=O)[C@H](CC(=O)O)NC1=O)NC(=O)[C@H](CC(C)(C)C)NC(=O)[C@H](CC(=O)O)NC2=O (stereo partly drawn) [I-1398, Ac-PL3-Asp-Npg-B5-Asp-Asp-Ala-Ala-Phe-Hse-S8-2F3MeF-BztA-Thro1] | 73 |  | 
3 | CC(=O)N1CCC[C@]12CC=CCCCC1(CCCC=CCCCOC(=O)N3CC[C@@](C(=O)N[C@@H](Cc4ccsc4)C(=O)N[C@@H](Cc4csc5ccccc45)C(=O)N[C@@H](CC(C)C)C(N)=O)(C3)NC(=O)[C@H](CC(C)C)NC(=O)[C@H](Cc3ccccc3)NC(=O)[C@H](C)NC(=O)[C@H](C)NC(=O)[C@H](CC(=O)O)NC(=O)[C@H](CC(=O)O)NC1=O)NC(=O)[C@H](CC(N)=O)NC(=O)[C@H](CC(=O)O)NC2=O (stereo partly drawn) [I-1413, Ac-PL3-Asp-Asn-B5-Asp-Asp-Ala-Ala-Phe-Leu-PyrS2-3Thi-BztA-Leu-NH2] |  |  | 74
4 | CC(=O)N1CCC[C@]12CC=CCCCC1(CCCC=CCCCOC(=O)N3CC[C@@](C(=O)N[C@@H](Cc4ccsc4)C(=O)N[C@@H](Cc4csc5ccccc45)C(=O)N[C@@H](CC(C)C)C(N)=O)(C3)NC(=O)[C@H](CC(C)C)NC(=O)[C@H](Cc3ccccc3)NC(=O)[C@H](C)NC(=O)[C@H](C)NC(=O)[C@H](CC(=O)O)NC(=O)[C@H](CC(=O)O)NC1=O)NC(=O)[C@H]([C@@H](C)O)NC(=O)[C@H](CC(=O)O)NC2=O (stereo partly drawn) [I-1415, Ac-PL3-Asp-Thr-B5-Asp-Asp-Ala-Ala-Phe-Leu-PyrS2-3Thi-BztA-Leu-NH2] |  |  | 72
5 | CC(=O)N1CCC[C@]12CC=CCCCC1(CCCC=CCCCOC(=O)N3CC[C@@](C(=O)N[C@@H](Cc4ccccc4Cl)C(=O)N[C@@H](Cc4csc5ccccc45)C(=O)N[C@@H](CC(C)C)C(N)=O)(C3)NC(=O)[C@H](CC(C)C)NC(=O)[C@H](Cc3ccccc3)NC(=O)[C@H](C)NC(=O)[C@H](C)NC(=O)[C@H](CC(=O)O)NC(=O)[C@H](CC(=O)O)NC1=O)NC(=O)[C@H](CC(C)C)NC(=O)[C@H](CC(=O)O)NC2=O (stereo partly drawn) [I-1419, Ac-PL3-Asp-Leu-B5-Asp-Asp-Ala-Ala-Phe-Leu-PyrS2-2C1F-BztA-Leu-NH2] | 152 | 152 | 
6 | CC(=O)N1CCC[C@]12CC=CCCCC1(CCCC=CCCCOC(=O)N3CC[C@@](C(=O)N[C@@H](Cc4ccccc4Cl)C(=O)N[C@@H](Cc4csc5ccccc45)C(=O)N[C@@H](CC(C)C)C(N)=O)(C3)NC(=O)[C@H](CC(C)C)NC(=O)[C@H](Cc3ccccc3)NC(=O)[C@H](C)NC(=O)[C@H](C)NC(=O)[C@H](CC(=O)O)NC(=O)[C@H](CC(=O)O)NC1=O)NC(=O)[C@H](CC(N)=O)NC(=O)[C@H](CC(=O)O)NC2=O (stereo partly drawn) [I-1422, Ac-PL3-Asp-Asn-B5-Asp-Asp-Ala-Ala-Phe-Leu-PyrS2-2C1F-BztA-Leu-NH2] |  |  | 388
7 | CC(=O)N1CCC[C@]12CC=CCCCC1(CCCC=CCCCOC(=O)N3CC[C@@](C(=O)N[C@@H](Cc4ccccc4Cl)C(=O)N[C@@H](Cc4csc5ccccc45)C(=O)N[C@@H](CC(C)C)C(N)=O)(C3)NC(=O)[C@H](CC(C)C)NC(=O)[C@H](Cc3ccccc3)NC(=O)[C@H](C)NC(=O)[C@H](C)NC(=O)[C@H](CC(=O)O)NC(=O)[C@H](CC(=O)O)NC1=O)NC(=O)[C@H](CO)NC(=O)[C@H](CC(=O)O)NC2=O (stereo partly drawn) [I-1423, Ac-PL3-Asp-Ser-B5-Asp-Asp-Ala-Ala-Phe-Leu-PyrS2-2C1F-BztA-Leu-NH2] |  |  | 389
8 | CC(=O)N1CCC[C@]12CC=CCCCC1(CCCC=CCCCOC(=O)N3CC[C@@](C(=O)N[C@@H](Cc4ccccc4Cl)C(=O)N[C@@H](Cc4csc5ccccc45)C(=O)N[C@@H](CC(C)C)C(N)=O)(C3)NC(=O)[C@H](CC(C)C)NC(=O)[C@H](Cc3ccccc3)NC(=O)[C@H](C)NC(=O)[C@H](C)NC(=O)[C@H](CC(=O)O)NC(=O)[C@H](CC(=O)O)NC1=O)NC(=O)[C@H]([C@@H](C)O)NC(=O)[C@H](CC(=O)O)NC2=O (stereo partly drawn) [I-1424, Ac-PL3-Asp-Thr-B5-Asp-Asp-Ala-Ala-Phe-Leu-PyrS2-2C1F-BztA-Leu-NH2] |  |  | 235

Second part, led by results:

Row | IC50 [1] [nM] | IC50 [3] [nM] | Compound | IC50 [2] [nM]
9 | 213 |  | CCCCCCCC(=O)N1CCC[C@]12CC=CCCCC1(CCCC=CCCCOC(=O)N3CC[C@@](C(=O)N[C@@H](Cc4ccccc4)C(=O)N[C@@H](Cc4csc5ccccc45)C(=O)N[C@@H](CO)C(N)=O)(C3)NC(=O)[C@H](CO)NC(=O)[C@H](Cc3ccccc3)NC(=O)[C@H](C)NC(=O)[C@H](C)NC(=O)[C@H](CC(=O)O)NC(=O)[C@H](CC(=O)O)NC1=O)NC(=O)[C@H](CC(C)(C)C)NC(=O)[C@H](CC(=O)O)NC2=O (stereo partly drawn) [I-1355, Oct-PL3-Asp-Npg-B5-Asp-Asp-Ala-Ala-Phe-Ser-PyrS2-Phe-BztA-Ser-NH2] | 
10 | 9 |  | CC(=O)N1CCC[C@]12CC=CCCCC1(CCCC=CCCCOC(=O)N3CC[C@@](C(=O)N[C@@H](Cc4ccccc4)C(=O)N[C@@H](Cc4csc5ccccc45)C(=O)N[C@@H](CCC(N)=O)C(N)=O)(C3)NC(=O)[C@H](CC(C)C)NC(=O)[C@H](Cc3ccccc3)NC(=O)[C@H](C)NC(=O)[C@H](C)NC(=O)[C@H](CC(=O)O)NC(=O)[C@H](CC(=O)O)NC1=O)NC(=O)[C@H](CC(C)C)NC(=O)[C@H](CC(=O)O)NC2=O (stereo partly drawn) [I-1402, Ac-PL3-Asp-Leu-B5-Asp-Asp-Ala-Ala-Phe-Leu-PyrS2-Phe-BztA-Gln-NH2] | 
11 | 57 | 57 | CC(=O)N1CCC[C@]12CC=CCCCC1(CCCC=CCCCOC(=O)N3CC[C@@](C(=O)N[C@@H](Cc4ccccc4Cl)C(=O)N[C@@H](Cc4csc5ccccc45)C(=O)N[C@@H](CC(C)C)C(N)=O)(C3)NC(=O)[C@H](CC(C)C)NC(=O)[C@H](Cc3ccccc3)NC(=O)[C@H](C)NC(=O)[C@H](C)NC(=O)[C@H](CC(=O)O)NC(=O)[C@H](CC(=O)O)NC1=O)NC(=O)[C@H](CC(C)(C)C)NC(=O)[C@H](CC(=O)O)NC2=O (stereo partly drawn) [I-1416, Ac-PL3-Asp-Npg-B5-Asp-Asp-Ala-Ala-Phe-Leu-PyrS2-2C1F-BztA-Leu-NH2] | 
12 | 198 | 198 | CC(=O)N1CCC[C@]12CC=CCCCC1(CCCC=CCCCOC(=O)N3CC[C@@](C(=O)N[C@@H](Cc4ccccc4Cl)C(=O)N[C@@H](Cc4csc5ccccc45)C(=O)N[C@@H](CC(C)C)C(N)=O)(C3)NC(=O)[C@H](CC(C)C)NC(=O)[C@H](Cc3ccccc3)NC(=O)[C@H](C)NC(=O)[C@H](C)NC(=O)[C@H](CC(=O)O)NC(=O)[C@H](CC(=O)O)NC1=O)NC(=O)[C@H](CC(C)(C)C)NC(=O)[C@H](CC(=O)O)NC2=O (stereo partly drawn) [I-1417, Ac-PL3-Asp-Npg-B5-Asp-Asp-Ala-Ala-Phe-Leu-PyrS2-2C1F-BztA-Leu-NH2] | 
13 | 124 | 124 | CCCC[C@@H]1NC(=O)[C@H](CC(=O)O)NC(=O)[C@]2(CC=CCCCC3(CCCC=CCCCOC(=O)N4CC[C@@](C(=O)N[C@@H](Cc5ccccc5Cl)C(=O)N[C@@H](Cc5csc6ccccc56)C(=O)N[C@@H](CC(C)C)C(N)=O)(C4)NC(=O)[C@H](CC(C)C)NC(=O)[C@H](Cc4ccccc4)NC(=O)[C@H](C)NC(=O)[C@H](C)NC(=O)[C@H](CC(=O)O)NC(=O)[C@H](CC(=O)O)NC3=O)NC1=O)CCCN2C(C)=O (stereo partly drawn) [I-1420, Ac-PL3-Asp-nLeu-B5-Asp-Asp-Ala-Ala-Phe-Leu-PyrS2-2C1F-BztA-Leu-NH2] | 
14 | 134 | 134 | CCCC[C@@H]1NC(=O)[C@H](CC(=O)O)NC(=O)[C@]2(CC=CCCCC3(CCCC=CCCCOC(=O)N4CC[C@@](C(=O)N[C@@H](Cc5ccccc5Cl)C(=O)N[C@@H](Cc5csc6ccccc56)C(=O)N[C@@H](CC(C)C)C(N)=O)(C4)NC(=O)[C@H](CC(C)C)NC(=O)[C@H](Cc4ccccc4)NC(=O)[C@H](C)NC(=O)[C@H](C)NC(=O)[C@H](CC(=O)O)NC(=O)[C@H](CC(=O)O)NC3=O)NC1=O)CCCN2C(C)=O (stereo partly drawn) [I-1421, Ac-PL3-Asp-nLeu-B5-Asp-Asp-Ala-Ala-Phe-Leu-PyrS2-2C1F-BztA-Leu-NH2] | 
15 | 239 |  | CC(=O)N1CCC[C@]12CC=CCCCC1(CCCC=CCCCOC(=O)N3CC[C@@](C(=O)N[C@@H](Cc4ccsc4)C(=O)N[C@@H](Cc4cccc(F)c4F)C(=O)N[C@@H](CCC(N)=O)C(N)=O)(C3)NC(=O)[C@H](CC(C)C)NC(=O)[C@H](Cc3ccccc3)NC(=O)[C@H](C)NC(=O)[C@H](C)NC(=O)[C@H](CC(=O)O)NC(=O)[C@H](CC(=O)O)NC1=O)NC(=O)[C@H](CC(C)(C)C)NC(=O)[C@H](CC(=O)O)NC2=O (stereo partly drawn) [I-1425, Ac-PL3-Asp-Npg-B5-Asp-Asp-Ala-Ala-Phe-Leu-PyrS2-3Thi-23FF-Gln-NH2] | 
